Measured values reported in patent US20240310368A1, “DETECTION KIT FOR CATECHOLAMINES AND METABOLITES THEREOF IN PLASMA/URINE AND DETECTION METHOD THEREOF” (Calibra Scientific, Inc., priority 2023, published 2024).
Values joined by “and” are separate entries in the source; they are usually repeats but may differ in a detail not shown here. Equal values may be shown once.

Columns and labels:
[1] = Stabilizing effect of accelerated stabilizers (37° C., 14 days) on standard products and quality control products then accelerated at 30° C. for 2 days; assay type: physicochemical; conditions: for Relative deviation %: 2 days at 30° C. vs Control; for concentration in standard products and quality control products, 2 days at 30° C. / concentration in standard products and quality control products, Control: single replicates
Description: Standard products of epinephrine, norepinephrine, dopamine, metanephrine, normetanephrine and 3-methoxytyramine were prepared into mixed solutions, and blank plasma containing a stabilizer was used as a matrix to prepare standard products and quality control products.
(§1) In the present example, the stabilizing effect of the stabilizers on plasma samples, standard products and quality control products after acceleration was further verified. The stabilizers were accelerated at 37° C. for 14 days (equivalent to 1 year at 2-8° C.), added into the plasma samples in proportions and then accelerated at 30° C. for 1.5 days (equivalent to 12 months at −30° C. to −15° C.). The stabilizers were accelerated at 37° C. for 14 days (equivalent to 1 year at 2-8° C.), added into the standard products and the quality control products in proportions and then accelerated at 30° C. for 2 days (equivalent to 18 months at −30° C. to −15° C.).

[2] = Stabilizing effect of accelerated stabilizers (37° C., 14 days) on plasma samples then accelerated at 30° C. for 1.5 days; assay type: physicochemical, human; conditions: for Relative deviation %: Accelerate vs Control; for concentration in plasma samples, Control / concentration in plasma samples, Accelerate: single replicates; for concentration in plasma samples, Accelerate: stabilizer accelerated 37° C. 14 days, plasma then accelerated at 30° C. for 1.5 days
Description: as §1

[3] = samples at a high concentration level
[4] = samples at a low concentration level

| Compound | Relative deviation % ([1]; High concentration level) | average concentration, 2 days at 30° C. ([1]; High concentration level) | concentration in standard products and quality control products, 2 days at 30° C. ([1]; High concentration level) | average concentration, Control ([1]; High concentration level) | concentration in standard products and quality control products, Control ([1]; High concentration level) | Relative deviation % ([1]; Low concentration level) | average concentration, 2 days at 30° C. ([1]; Low concentration level) | concentration in standard products and quality control products, 2 days at 30° C. ([1]; Low concentration level) | average concentration, Control ([1]; Low concentration level) | concentration in standard products and quality control products, Control ([1]; Low concentration level) | Relative deviation % ([1]; Medium concentration level) | average concentration, 2 days at 30° C. ([1]; Medium concentration level) | concentration in standard products and quality control products, 2 days at 30° C. ([1]; Medium concentration level) | average concentration, Control ([1]; Medium concentration level) | concentration in standard products and quality control products, Control ([1]; Medium concentration level) | Relative deviation % [2, 3] | concentration in plasma samples, Control [2, 3] | concentration in plasma samples, Accelerate [2, 3] | Relative deviation % [2, 4] | concentration in plasma samples, Control [2, 4] | also measured |
| --- | --- | --- | --- | --- | --- | --- | --- | --- | --- | --- | --- | --- | --- | --- | --- | --- | --- | --- | --- | --- | --- |
| CNCC(O)c1ccc(O)c(OC)c1 (stereo not drawn) [MN] | 0.61% | 984.35 pg/mL | 1.00342 ng/mL and 0.93428 ng/mL and 1.01536 ng/mL | 978.42 pg/mL | 1.00662 ng/mL and 0.97242 ng/mL and 0.9562 ng/mL | 2.69% | 12.16 pg/mL | 0.01233 ng/mL and 0.01302 ng/mL and 0.01113 ng/mL | 11.84 pg/mL | 0.01265 ng/mL and 0.01291 ng/mL and 0.00997 ng/mL | −1.18% | 198.93 pg/mL | 0.20299 ng/mL and 0.20812 ng/mL and 0.18568 ng/mL | 201.31 pg/mL | 0.21281 ng/mL and 0.1969 ng/mL and 0.19422 ng/mL | −1.2% | 0.41672 ng/mL and 0.40668 ng/mL and 0.40997 ng/mL | 0.39738 ng/mL and 0.41965 ng/mL and 0.40205 ng/mL | 1.9% | 0.07592 ng/mL and 0.07977 ng/mL and 0.07321 ng/mL | concentration in plasma samples, Accelerate [2, 4]: 0.0778 ng/mL and 0.07674 ng/mL and 0.07872 ng/mL |
| NC[C@H](O)c1ccc(O)c(O)c1 [NE] | 0.32% | 4998.13 pg/mL | 4.88469 ng/mL and 4.96531 ng/mL and 5.14439 ng/mL | 4982.23 pg/mL | 4.87738 ng/mL and 5.14511 ng/mL and 4.9242 ng/mL | −8.19% | 55.15 pg/mL | 0.05733 ng/mL and 0.05299 ng/mL and 0.05514 ng/mL | 60.07 pg/mL | 0.06429 ng/mL and 0.06019 ng/mL and 0.05575 ng/mL | 1.77% | 994.89 pg/mL | 0.98928 ng/mL and 1.01881 ng/mL and 0.97658 ng/mL | 977.62 pg/mL | 0.97173 ng/mL and 0.97142 ng/mL and 0.98969 ng/mL | −7.1% | 1.73055 ng/mL and 1.84024 ng/mL and 1.88485 ng/mL | 1.79476 ng/mL and 1.56875 ng/mL and 1.70297 ng/mL | −2.5% | 0.27092 ng/mL and 0.2617 ng/mL and 0.26601 ng/mL | concentration in plasma samples, Accelerate [2, 4]: 0.26432 ng/mL and 0.25764 ng/mL and 0.25636 ng/mL |
| COc1cc(CCN)ccc1O [Group 3-MT] | −3.54% | 1001.8 pg/mL | 1.00258 ng/mL and 0.99459 ng/mL and 1.00823 ng/mL | 1038.58 pg/mL | 1.01486 ng/mL and 1.01865 ng/mL and 1.08223 ng/mL | −8.93% | 10.93 pg/mL | 0.01106 ng/mL and 0.01049 ng/mL and 0.01124 ng/mL | 12 pg/mL | 0.01245 ng/mL and 0.01066 ng/mL and 0.0129 ng/mL | −4.98% | 182.01 pg/mL | 0.16702 ng/mL and 0.19198 ng/mL and 0.18703 ng/mL | 191.55 pg/mL | 0.19324 ng/mL and 0.19663 ng/mL and 0.18479 ng/mL | −2.0% | 0.38458 ng/mL and 0.38086 ng/mL and 0.37856 ng/mL | 0.35799 ng/mL and 0.37926 ng/mL and 0.38345 ng/mL | 0.6% | 0.06389 ng/mL and 0.06483 ng/mL and 0.06347 ng/mL | concentration in plasma samples, Accelerate [2, 4]: 0.06307 ng/mL and 0.062 ng/mL and 0.06825 ng/mL |
| NCCc1ccc(O)c(O)c1 [DA] | 0.3% | 1485.59 pg/mL | 1.46403 ng/mL and 1.43079 ng/mL and 1.56195 ng/mL | 1481.12 pg/mL | 1.46201 ng/mL and 1.49448 ng/mL and 1.48688 ng/mL | −0.29% | 17.86 pg/mL | 0.01762 ng/mL and 0.01837 ng/mL and 0.01758 ng/mL | 17.91 pg/mL | 0.01722 ng/mL and 0.0181 ng/mL and 0.01841 ng/mL | −2.2% | 294.46 pg/mL | 0.2821 ng/mL and 0.31535 ng/mL and 0.28595 ng/mL | 301.09 pg/mL | 0.30826 ng/mL and 0.30148 ng/mL and 0.29352 ng/mL | −2.0% | 0.55903 ng/mL and 0.52998 ng/mL and 0.57132 ng/mL | 0.55049 ng/mL and 0.5487 ng/mL and 0.52712 ng/mL | −0.8% | 0.0743 ng/mL and 0.09053 ng/mL and 0.08768 ng/mL | concentration in plasma samples, Accelerate [2, 4]: 0.08786 ng/mL and 0.07829 ng/mL and 0.08442 ng/mL |
